In brackets after ≈: the same amount, converted by molar mass. Read-outs that look alike come from different tables or passages of the source.
What was measured:
[1] = Log D, 1-octanol/buffer shake flask; assay type: physicochemical; conditions: pH 7.4
In short: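 Compound from a 10 mM DMSO stock was partitioned between mutually saturated 1-octanol and 0.1 M phosphate buffer by shaking for 1 h at room temperature, then centrifuged. Each phase was diluted and quantified by LC/MS/MS. Log D came from the ratio of dilution- and internal-standard-corrected peak areas.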

hERG = hERG (Homo sapiens, UniProt Q12809); experiment: hERG HCS, FLIPR potassium assay, CHO/hERG; assay type: cell-based; design: host or cells: CHO; conditions: for hERG IC50 (inhibition in parentheses): at highest concentration shown
Chain of hERG (Q12809 whole entry): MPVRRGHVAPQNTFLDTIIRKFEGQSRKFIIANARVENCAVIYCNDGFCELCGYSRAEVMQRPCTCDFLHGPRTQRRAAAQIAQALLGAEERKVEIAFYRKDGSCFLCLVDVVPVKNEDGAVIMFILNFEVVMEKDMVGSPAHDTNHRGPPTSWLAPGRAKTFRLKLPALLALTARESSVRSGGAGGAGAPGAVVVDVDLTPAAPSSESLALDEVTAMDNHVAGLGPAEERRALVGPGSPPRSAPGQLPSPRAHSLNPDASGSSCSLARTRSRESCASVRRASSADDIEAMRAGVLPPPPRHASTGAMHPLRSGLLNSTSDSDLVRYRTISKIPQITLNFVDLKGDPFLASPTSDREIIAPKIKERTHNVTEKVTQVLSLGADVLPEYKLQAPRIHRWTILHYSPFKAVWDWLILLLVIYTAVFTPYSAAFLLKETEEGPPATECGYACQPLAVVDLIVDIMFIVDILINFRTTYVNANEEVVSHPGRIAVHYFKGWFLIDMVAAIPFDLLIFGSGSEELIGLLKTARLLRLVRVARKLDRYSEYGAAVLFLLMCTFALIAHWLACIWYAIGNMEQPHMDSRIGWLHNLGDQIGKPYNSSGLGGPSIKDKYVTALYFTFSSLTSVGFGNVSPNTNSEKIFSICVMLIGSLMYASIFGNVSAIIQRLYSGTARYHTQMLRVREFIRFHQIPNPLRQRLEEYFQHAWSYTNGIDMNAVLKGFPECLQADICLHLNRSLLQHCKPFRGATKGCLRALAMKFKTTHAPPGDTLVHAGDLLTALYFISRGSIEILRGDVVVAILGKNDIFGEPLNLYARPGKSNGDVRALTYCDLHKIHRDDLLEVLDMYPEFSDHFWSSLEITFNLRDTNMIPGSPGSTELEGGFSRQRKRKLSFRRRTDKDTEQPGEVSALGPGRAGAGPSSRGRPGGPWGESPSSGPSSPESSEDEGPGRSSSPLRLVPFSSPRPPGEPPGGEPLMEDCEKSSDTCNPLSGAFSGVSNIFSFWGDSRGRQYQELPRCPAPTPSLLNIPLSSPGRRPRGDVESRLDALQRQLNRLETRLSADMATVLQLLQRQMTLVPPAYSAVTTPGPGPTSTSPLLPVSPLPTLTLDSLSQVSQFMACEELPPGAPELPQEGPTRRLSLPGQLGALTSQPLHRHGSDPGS
Procedure: (§1) Cell culture: Chinese hamster ovary (CHO) cell-line cells with a constitutive expression of human hERG channels (B'SYS GmbH, Switzerland) were cultured in F-12 nutrient mixture (Biological Industries) supplemented with 10% fetal bovine serum (Biological Industries) and 1% penicillin-streptomycin (Biological Industries) in a humidified 5% CO2 incubator at 37° C. To maintain the hERG expression stability of the CHO cell line, antibiotics selection (G418 200 g/mL and Hygromycin 500) was applied.
FLIPR Potassium Assay Kit: The FLIPR Potassium Assay Kit (R8222 FLIPR Potassium Assay Explorer Kits, Molecular Devices) was used with CHO/hERG cell line, for screening compounds against the hERG ion-channel off-target, as detailed hereinabove.
According to optimization process, to achieve a uniform and consistent screening condition of molecules, the following protocol was established: Cells were seeded in 384-well, black-walled, clear-bottomed, at a density of 7,500 cells per well 24 hours before the assay conductance and incubated overnight in their normal growth medium. On the experiment day the medium was replaced with HBSS, HEPES, and the tested compound/vehicle (0.2% DMSO). Dye solution (prepared according to the manufacturer) was added to the wells and plates were incubated for 1.5 hour light-protected in room temperature. The Tecan Spark plate-reader injectors were primed with Tl+(1 mM Tl2SO4) or Tl++K+(1 mM Tl2SO4; 10 mM K2SO4) for channel activation and data correction. […]. To calculate IC50 values, the data was fitted to sigmoidal regression using Prism GraphPad.

hTRPV1 = biological target: T1, hTRPV1 (Homo sapiens, UniProt Q8NER1); experiment: TRPV1 HCS, Fluo-8 calcium flux, capsaicin activation, CHO cells expressing hTRPV1; assay type: cell-based
T1 construct: CDS of NM_080704.4, inserted into the multiple cloning site of pcDNA3.1(+); host or cells: CHO/hKv7.2/3
T1 sequence (Q8NER1 whole entry): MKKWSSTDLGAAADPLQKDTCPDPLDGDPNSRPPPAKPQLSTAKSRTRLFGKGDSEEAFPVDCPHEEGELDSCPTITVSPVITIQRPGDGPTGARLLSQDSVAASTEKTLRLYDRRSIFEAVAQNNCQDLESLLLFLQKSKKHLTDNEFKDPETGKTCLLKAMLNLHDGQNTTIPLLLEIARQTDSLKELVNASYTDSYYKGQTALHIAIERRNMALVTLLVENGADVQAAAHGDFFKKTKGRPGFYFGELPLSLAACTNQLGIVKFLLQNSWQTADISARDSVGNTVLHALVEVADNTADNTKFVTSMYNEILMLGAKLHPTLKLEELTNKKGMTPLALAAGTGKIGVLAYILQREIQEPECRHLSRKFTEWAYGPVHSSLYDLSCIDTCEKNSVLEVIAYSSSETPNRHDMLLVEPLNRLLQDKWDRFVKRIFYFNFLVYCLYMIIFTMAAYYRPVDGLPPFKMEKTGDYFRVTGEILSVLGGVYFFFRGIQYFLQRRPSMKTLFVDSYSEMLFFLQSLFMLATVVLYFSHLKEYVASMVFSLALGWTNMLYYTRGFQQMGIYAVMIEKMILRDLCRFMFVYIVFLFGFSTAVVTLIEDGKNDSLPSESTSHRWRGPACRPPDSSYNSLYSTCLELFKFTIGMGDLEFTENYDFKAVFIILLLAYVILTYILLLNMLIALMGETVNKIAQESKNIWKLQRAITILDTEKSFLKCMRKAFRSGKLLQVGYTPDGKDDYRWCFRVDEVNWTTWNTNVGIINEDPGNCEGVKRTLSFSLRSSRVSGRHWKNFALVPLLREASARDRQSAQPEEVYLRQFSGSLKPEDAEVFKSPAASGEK
Procedure: as §1, with “with” for “with a”, “human hTRPV1” for “human hERG”, “the stable” for “the hERG”, “expression” for “expression stability”, “of hTRPV1, antibiotic” for “of the CHO cell line, antibiotics”, “(G418 500 μg/ml)” for “(G418 200 g/mL and Hygromycin 500)”
High content screen (HCS) using Fluo-8 No Wash Calcium flux Assay Kit: Fluo-8 No Wash Calcium Assay Kit (Abcam, ab112129) was used with CHO stably or transiently expressing TRPV1 to screen compounds against the hTRPV1 ion channel target. The cells were pre-loaded with Fluo-8AM which is membrane permeable. The AM groups of the Fluo-8AM were then being cleaved by intracellular esterase, trapping the Fluo8 in the cell. […] The relative fluorescence signal was calculated following background subtraction, comparing the fluorescence at each time point to its maximal level measured following Ionomycin application in the end.
According to optimization process to achieve uniform and consistent screening condition of molecules the following protocol was established: Cells were seeded in 384-well, black-walled, clear-bottomed, at a density of 5,000 cells per well 24 h before the assay conductance and incubated overnight in their normal growth medium. On the experiment day the medium was replaced in each well with HBSS, HEPES, and compound/vehicle (0.2% DMSO). Dye solution (prepared according to the manufacturer) was added to the wells and plates are incubated for 1.5 h light-protected in room temperature. The Tecan Spark plate reader injectors were then primed with capsaicin and Ionomycin for channel activation and data normalization, respectively. […] To calculate IC50 values, the data was fitted to sigmoidal regression line using Prism GraphPad. The fitting was constrained to a minimum of 0 and a maximal response of about 1 unless a different maximal response could be identified.

Kinetic solubility = assay type: physicochemical; conditions: for solubility kinetic: hhbs buffer, aqueous buffer
Procedure: Solubility measurements were performed prior to each in vitro assay to ensure accurate dose response and reproducibility. Briefly, each compound was dissolved to 60 mM in DMSO and calibration curve was performed from 1.5-200 μM using absorbance spectra analysis and determination of λmax. Calibration curve served as the readout for all following assays. The 60 mM stock solution was used to make a 120 μM target concentration of 0.2% DMSO in the appropriate buffer of the in vitro related assay (i.e. HHBS buffer). Solubilized compounds were vortex for 10 minutes followed by centrifugation for 15 minutes in 5000 RPM and the supernatant was recovered for absorbance spectra analysis between 200-400 nm.

[2] = Metabolite identification (Met-ID), human hepatocytes; assay type: in vitro ADME
Procedure: Cell culture and incubation: Cryopreserved hepatocyte cells, from human and rat sources, were purchased from commercial sources or in-house production, and were cultured in Williams' Medium E supplemented with glutamine and HEPES, in a humidified 5% CO2 incubator at 37° C., to a cell density of […]. Then, solutions of test compounds at a concentration of 10 μM, or 7-Ethoxycoumarin, as a positive control, at a concentration of 30 μM, in Eagle's Minimum Essential Medium, Catalog No. 30-2003 (ATCC) supplemented with 20% fetal bovine serum, were introduced and the mixture was incubated for 120 minutes, or other specified time points.
The samples were analyzed for metabolites using an LC-MS method developed on […] and PDA systems. Comparative analyses of mass spectra and ion fragmentation between the parent compound and its metabolites were carried out, and metabolic profiling was determined using the mass spectrometric and/or PDA (UV) response. Hypothetical structures of metabolites and their metabolic pathways were proposed.

[3] = 1-octanol/phosphate buffer, read-out: LogD
[4] = cells expressing TRPV1, read-out: TRPV1 IC50
[5] = Table 1, read-out: Kinetic Sol.
[6] = Tables 4 and 11, read-out: Kinetic Sol.

SMILES: COC[C@@H](CO)NC(=O)Cc1cc(Sc2c(Cl)cc(F)cc2C(C)C)ccc1F [Compound 415]
- logD [1, 3]: 4.25
- IC50 (hERG; Table 1, read-out: hERG IC50): > 23 µM
- hERG IC50 (inhibition in parentheses) (hERG; Table 1): 0%
- IC50 (hTRPV1): 7.8 µM
- IC50 (hTRPV1; [4]): 7.7 µM
- solubility kinetic (Kinetic solubility; [5]): 26.7 µM (≈ 11.9 µg/mL)

SMILES: CC(C)c1cc(Cl)cc(Cl)c1C(=O)c1ccc(F)c(CC(=O)NCC(C)(C)O)c1 [Compound 417-4]
- logD [1, 3]: 4.08
- IC50 (hERG; Table 1, read-out: hERG IC50): > 35 µM
- hERG IC50 (inhibition in parentheses) (hERG; Table 1): 0%
- IC50 (hTRPV1; [4]): 8 µM
- solubility kinetic (Kinetic solubility; [5]): 66 µM (≈ 29.1 µg/mL)

SMILES: Cc1cn(-c2ccc(F)c(CC(=O)NCC(C)(C)O)c2)c2c(Cl)cc(Cl)cc12 [Compound 421-6]
- logD [1]: 5.47
- IC50 (hERG; Table 1, read-out: hERG IC50): > 2.5 µM
- hERG IC50 (inhibition in parentheses) (hERG; Table 1): 0%
- IC50 (hTRPV1; [4]): 2.1 µM
- Kinetic Sol. (Kinetic solubility; Table 1): 3.4

SMILES: O=C(Cc1cc(-n2cc(C(F)(F)F)c3cc(Cl)cc(Cl)c32)ncn1)NCCO [Compound 843]
- logD [1, 3]: 3.75
- Human Hepatocytes MetID ([2]; human hepatocytes): 0.2%
- Human Hepatocytes MetID (glutathione conjugation) ([2]; human hepatocytes): did not indicate the presence of glutathione conjugation

SMILES: O=C(Cc1nccc(-n2cc(Cl)c3cc(Cl)cc(Cl)c32)n1)NC1COCC1O (stereo not drawn) [Compound 760]
- logD [1, 3]: 3.28
- Human Hepatocytes MetID (glutathione conjugation) ([2]; human hepatocytes): did not indicate the presence of glutathione conjugation and None
- hERG activity (hERG): lacks any effect on hERG and Kv7.3/4/5 activity below 10 μM
- IC50 (hERG; human, cho/herg cells, Thallium ions (Tl+) fluorescence, read-out: hERG EC50): 33.4 µM
- solubility kinetic (Kinetic solubility; [6]): 57000 µM (≈ 25200 µg/mL)
- solubility kinetic (Kinetic solubility; read-out: Kinetic solubility): 57 µM (≈ 25.2 µg/mL)

SMILES: O=C(Cc1cncc(-n2cc(Cl)c3cc(Cl)cc(Cl)c32)c1)N[C@@H]1COC[C@H]1O [Compound 661]
- logD [1, 3]: 3.55
- Metabolites M1-M7 (glutathione conjugation), share of identified metabolites [2]: 2.09%
- hERG activity (hERG): no measurable activity at any concentration tested
- IC50 (hERG; Table 1, read-out: hERG IC50): > 16.6 µM
- hERG IC50 (inhibition in parentheses) (hERG; Table 1): 0%
- IC50 (hERG; hERG IC50 HCS): 18.7 µM
- IC50 (hTRPV1): 19 µM
- IC50 (hTRPV1; [4]): 19.3 µM
- IC50 (hTRPV1; read-out: CAP hTRPV1 IC50 HCS): 19.1 µM
- solubility kinetic (Kinetic solubility; [5]): 40 µM (≈ 17.6 µg/mL)
- solubility kinetic (Kinetic solubility; [6]): 37000 µM (≈ 16300 µg/mL)

SMILES: O=C(Cc1ccnc(-n2cc(Cl)c3cc(Cl)cc(Cl)c32)n1)N[C@@H]1COC[C@H]1O [Compound 820]
- logD [1, 3]: 3.82
- Human Hepatocytes MetID (glutathione conjugation) ([2]; human hepatocytes): did not indicate the presence of glutathione conjugation and None

SMILES: CC(C)c1cc(Cl)cc(Cl)c1Nc1ccc(F)c(CC(=O)NCC(C)(C)O)c1 [NH91, reference compound]
- logD [1, 3]: 4.66
- IC50 (hTRPV1): 8 µM
- solubility kinetic (Kinetic solubility; Kinetic Sol., Tables 4 and 11): 20 µM (≈ 8.55 µg/mL)
- solubility kinetic (Kinetic solubility; read-out: Kinetic solubility): 20 µM (≈ 8.55 µg/mL)

SMILES: Cc1cn(-c2ccc(F)c(CC(=O)NCC(C)(C)O)c2)c2c(Cl)cc(Cl)cc12 [Compound 421]
- logD [1, 3]: 5.45
- IC50 (hERG; hERG IC50 HCS): > 2.5 µM
- IC50 (hTRPV1): 1.8 µM
- solubility kinetic (Kinetic solubility; [6]): 3400 µM (≈ 1440 µg/mL)

SMILES: O=C(Cc1cc(-n2cc(Cl)c3cc(Cl)cc(Cl)c32)ccc1F)NCCO [Compound 627]
- IC50 (hERG; Table 1, read-out: hERG IC50): > 2.5 µM
- hERG IC50 (inhibition in parentheses) (hERG; Table 1): 0%
- IC50 (hERG; hERG IC50 HCS): > 2.65 µM
- IC50 (hTRPV1; [4]): 1.9 µM
- IC50 (hTRPV1; read-out: CAP hTRPV1 IC50 HCS): 1.9 µM

From US20260327211A1, “MODULATORS OF A POTASSIUM CHANNEL AND OF TRPV1 CHANNEL AND USES THEREOF” (Bsense Bio Therapeutics Ltd., priority 2023, published 2026)
